From publication PMC6717395 (Drug Design, Development and Therapy, 2019)

Columns and labels:
DPPH antioxidant assay = conditions: for DPPH % inhibition (mean ± S.E.M): n=3; for DPPH IC50: DPPH radical scavenging
ABTS antioxidant assay = conditions: for ABTS percent inhibition (mean ± S.E.M): n=3; for ABTS IC50: ABTS radical scavenging
[1] = target: acetylcholinesterase (AChE) (Homo sapiens, UniProt P22303); assay: biochemical
[2] = target: butyrylcholinesterase (BChE) (Homo sapiens, UniProt P06276); assay: Anticholinesterase assay; format: biochemical
Sequence of butyrylcholinesterase (BChE) (P06276 29-602, species assumed): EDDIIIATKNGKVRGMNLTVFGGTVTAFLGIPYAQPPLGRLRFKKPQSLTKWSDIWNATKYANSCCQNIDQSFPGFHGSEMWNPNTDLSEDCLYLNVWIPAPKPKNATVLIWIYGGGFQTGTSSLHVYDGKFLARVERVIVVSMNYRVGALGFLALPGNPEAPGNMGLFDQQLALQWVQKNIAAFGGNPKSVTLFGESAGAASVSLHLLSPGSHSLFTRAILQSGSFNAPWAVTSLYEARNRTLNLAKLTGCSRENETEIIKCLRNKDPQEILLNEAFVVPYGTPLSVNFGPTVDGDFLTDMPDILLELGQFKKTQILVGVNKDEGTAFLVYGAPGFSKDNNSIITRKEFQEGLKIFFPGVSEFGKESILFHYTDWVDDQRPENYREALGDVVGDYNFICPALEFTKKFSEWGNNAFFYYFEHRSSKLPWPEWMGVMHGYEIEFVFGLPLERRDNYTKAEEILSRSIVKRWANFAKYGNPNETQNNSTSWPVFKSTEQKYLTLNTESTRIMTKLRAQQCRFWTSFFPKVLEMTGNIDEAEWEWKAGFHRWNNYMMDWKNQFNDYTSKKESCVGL

[3] = read-out: Percent BChE (mean ± SEM) inhibition

Sequence of acetylcholinesterase (AChE) (P22303 32-614, species assumed): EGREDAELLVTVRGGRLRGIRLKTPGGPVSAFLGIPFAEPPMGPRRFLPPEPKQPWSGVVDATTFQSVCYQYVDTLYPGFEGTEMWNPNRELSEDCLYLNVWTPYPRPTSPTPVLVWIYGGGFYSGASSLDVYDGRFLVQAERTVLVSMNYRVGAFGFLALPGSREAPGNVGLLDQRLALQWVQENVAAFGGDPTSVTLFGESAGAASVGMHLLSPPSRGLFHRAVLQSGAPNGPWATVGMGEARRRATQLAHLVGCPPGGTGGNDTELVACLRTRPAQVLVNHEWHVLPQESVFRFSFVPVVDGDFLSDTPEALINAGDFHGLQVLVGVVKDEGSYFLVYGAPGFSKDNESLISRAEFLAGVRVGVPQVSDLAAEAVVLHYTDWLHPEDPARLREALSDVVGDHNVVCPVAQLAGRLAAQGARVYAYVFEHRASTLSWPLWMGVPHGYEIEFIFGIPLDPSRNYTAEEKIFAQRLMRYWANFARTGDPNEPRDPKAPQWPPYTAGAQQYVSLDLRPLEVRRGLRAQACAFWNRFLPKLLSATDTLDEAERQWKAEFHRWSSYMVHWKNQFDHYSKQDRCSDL

Structure (SMILES)	DPPH % inhibition (mean ± S.E.M) (DPPH antioxidant assay; 62.5 μg/mL) [%]	DPPH % inhibition (mean ± S.E.M) (DPPH antioxidant assay; 125 μg/mL) [%]	DPPH % inhibition (mean ± S.E.M) (DPPH antioxidant assay; 250 μg/mL) [%]	DPPH % inhibition (mean ± S.E.M) (DPPH antioxidant assay; 500 μg/mL) [%]	DPPH % inhibition (mean ± S.E.M) (DPPH antioxidant assay; 1000 μg/mL) [%]	DPPH IC50 (DPPH antioxidant assay) [µg/mL]	ABTS percent inhibition (mean ± S.E.M) (ABTS antioxidant assay; 62.5 μg/mL) [%]	ABTS percent inhibition (mean ± S.E.M) (ABTS antioxidant assay; 125 μg/mL) [%]	ABTS percent inhibition (mean ± S.E.M) (ABTS antioxidant assay; 250 μg/mL) [%]	ABTS percent inhibition (mean ± S.E.M) (ABTS antioxidant assay; 500 μg/mL) [%]	ABTS percent inhibition (mean ± S.E.M) (ABTS antioxidant assay; 1000 μg/mL) [%]	ABTS IC50 (ABTS antioxidant assay) [µg/mL]	inhibition at 62.5 µg/mL [2, 3] [%]	also measured
O=C1O[C@H]([C@@H](O)CO)C(O)=C1O [Ascorbic acid, reference compound]	55.05±1.54	65.30±2.05	78.89±1.34	87.21±0.75	94.88±1.63	35	55.51±1.09	64.06±1.15	77.64±3.06	83.76±1.16	93.41±0.73	35	–	–
O=C(O)CCCCC(=O)O [Compound VIII, Hexanedioic acid]	41.17±1.97	51.10±2.39	63.13±2.17	72.84±1.87	81.64±2.76	118	41.70±1.06	50.02±1.11	62.19±0.90	70.10±1.20	80.23±1.37	125	40.6 ± 1.06	IC50 [1]: 835 µM; inhibition at 62.5 µg/mL ([1]; read-out: Percent AChE (mean ± SEM) inhibition, 62.5 μg/mL, n=3): 41.7 ± 3.01%; inhibition at 125 µg/mL ([1]; read-out: Percent AChE (mean ± SEM) inhibition, 125 μg/mL, n=3): 50.3 ± 2.1%; inhibition at 250 µg/mL ([1]; read-out: Percent AChE (mean ± SEM) inhibition, 250 μg/mL, n=3): 62.1 ± 2.41%; inhibition at 500 µg/mL ([1]; read-out: Percent AChE (mean ± SEM) inhibition, 500 μg/mL, n=3): 71.2 ± 2.37%; inhibition at 1000 µg/mL ([1]; read-out: Percent AChE (mean ± SEM) inhibition, 1000 μg/mL, n=3): 79.6 ± 2.1%; IC50 [2]: 848 µM; inhibition at 125 µg/mL [2, 3]: 50.1 ± 2.16%; inhibition at 250 µg/mL [2, 3]: 61.2 ± 2.1%; inhibition at 500 µg/mL [2, 3]: 71.3 ± 1.1%; inhibition at 1000 µg/mL [2, 3]: 78.2 ± 1.31%
COc1ccc2c3c1O[C@H]1C[C@@H](O)C=C[C@@]31CCN(C)C2 [Galanthamine, reference compound]	–	–	–	–	–	–	–	–	–	–	–	–	53.5 ± 1.69	–
